{"source": "patent US12274732B2", "about": "“Anti-pathogen composition and methods of use thereof” (Tenfold Technologies, LLC, priority 2017, dated 2025)", "key": {"[1]": {"system": "Methicillin-resistant Staphylococcus aureus (MRSA)", "assay": "In vitro antimicrobial activity against MRSA", "format": "cell-based", "procedure": "(§1) Fifty organic extracts were prepared from 25 whole broth of four microbial strains (MS1479, MS2379, MS2820, and MS2414), which were fermented in different media for the antimicrobial testing. Note each whole broth culture generated one n-butanol extract from cultural supernatant and one methanol extract from cell pellets.\n(§2) The antimicrobial activities of the 50 organic extracts were studied against three fungal pathogens—Candida albicans, Aspergillus fumigatus, and Cryptococcus neoformans—and five bacterial strains-Methicillin-resistant Staphylococcus aureus (MIRSA), Escherichia coli, Pseudomonas aeruginosa, Klebsiella pneumoniae, and Vancomycin-resistant Enterococcus faecium (VRE) (FIG. 2). The test concentrations for all extracts were in the range of 8-200 μg/mL (Table 3).\n(§3) The antimicrobial activities of identified fusaricidins were in an in vitro study against several clinically relevant microbes. […] For the in-vitro assays against bacteria, fusaricidins were tested against methicillin-resistant Staphylococcus aureus, vancomycin-resistant Enterococcus faecium, Escherichia coli, and Pseudomonas aeruginosa using four antibacterial drugs methicillin, vancomycin, cefotaxime, and meropenem as controls. […] Fusaricidins were also tested against fungal pathogens Cryptococcus neoformans, Candida albicans, and Aspergillus fumigatus and compared with two antifungal drugs, fluconazole and amphotericin B (Table 13). Moreover, the anti-parasitic activity was also tested against L. donovani and T. brucei (Table 14)."}, "[2]": {"system": "Vancomycin-resistant Enterococcus faecium (VRE)", "assay": "In vitro antimicrobial activity against VRE", "format": "cell-based", "procedure": "as §1, §2, §3"}, "[3]": {"assay": "Heat stability of fusaricidins, whole broth autoclaved", "format": "physicochemical", "conditions": "fermentation whole broth autoclaved at 121.5° C. for 30 minutes", "procedure": "In order to test the heat stability of fusaricidins, the fermentation whole broth was autoclaved at 121.5° C. for 30 minutes. Fusaricidin contents were analyzed before and after autoclave. Without being bound by a theory, fusaricidin A is heat stable because significant amounts of fusaricidin A were detected after the harsh heat treatment in most cases (FIG. 3B)."}}, "note": "Positions of bridges follow the written chain, without caps; N, C: chain ends. Non-standard residues stand in square brackets, D forms with d. Residues, ends and D or L forms follow the SMILES beside them. ξ: configuration not given here. *: point of attachment. Pentadecanoyl(3ξ-OH,15-Gua) = N=C(N)NCCCCCCCCCCCCC(O)CC(=O)*; d(aThr) = C[C@@H](O)[C@@H](N)C(=O)O"}
{"smiles": "CC(C)[C@@H]1NC(=O)[C@@H](C(C)C)NC(=O)[C@@H](NC(=O)CC(O)CCCCCCCCCCCCNC(=N)N)[C@@H](C)OC(=O)[C@@H](C)NC(=O)[C@@H](CC(N)=O)NC(=O)[C@@H]([C@@H](C)O)NC1=O", "note": "(stereo partly drawn) [Fusaricidin A] ({Pentadecanoyl(3ξ-OH,15-Gua)}-T[dV]V[d(aThr)][dN][dA]; ester 1-C)", "values": [{"measurement": "activity against MRSA (in words)", "setting": "[1]", "value": "strong activity"}, {"measurement": "activity against VRE (in words)", "setting": "[2]", "value": "strong activity"}, {"measurement": "heat stability", "setting": "[3]", "value": "heat stable"}]}
